In patent US11780821B2, “Inhibitors of fibroblast activation protein” (Praxis Biotech LLC, priority 2017, dated 2023):
Where a name gives a salt, the structure may show the parent alone. Read-outs that look alike come from different tables or passages of the source.

Experiments:
Assay type in all cases: biochemical
[1] = target: T1, recombinant human DPP9 (rhDPP9) (Homo sapiens, UniProt Q86TI2); assay: DPP9 enzymatic activity assay; conditions: H-Gly-Pro-AMC substrate
T1 construct: purchased R&S system (so in the source)
Description: (§1) 7-Amino-4-Methylcoumarin (AMC) release was detected by measuring fluorescence at Ex/Em 380/460 nm using a Multifunction Microplate Reader (Synergy 4, Biotek). All measurements were carried out in triplicate.

[2] = target: T2, recombinant human FAPα (rhFAPα) (Homo sapiens, UniProt Q12884); assay: FAPα enzymatic exopeptidase (dipeptidase) activity assay; conditions: for inhibition at 1 µM: read-out: rhFAPα (% exo inh @ 1 μM); for IC50: exopeptidase, read-out: rhFAPα (exo IC50)
T2 construct: purchased R&S system (so in the source)
T2 sequence (Q12884 1-760): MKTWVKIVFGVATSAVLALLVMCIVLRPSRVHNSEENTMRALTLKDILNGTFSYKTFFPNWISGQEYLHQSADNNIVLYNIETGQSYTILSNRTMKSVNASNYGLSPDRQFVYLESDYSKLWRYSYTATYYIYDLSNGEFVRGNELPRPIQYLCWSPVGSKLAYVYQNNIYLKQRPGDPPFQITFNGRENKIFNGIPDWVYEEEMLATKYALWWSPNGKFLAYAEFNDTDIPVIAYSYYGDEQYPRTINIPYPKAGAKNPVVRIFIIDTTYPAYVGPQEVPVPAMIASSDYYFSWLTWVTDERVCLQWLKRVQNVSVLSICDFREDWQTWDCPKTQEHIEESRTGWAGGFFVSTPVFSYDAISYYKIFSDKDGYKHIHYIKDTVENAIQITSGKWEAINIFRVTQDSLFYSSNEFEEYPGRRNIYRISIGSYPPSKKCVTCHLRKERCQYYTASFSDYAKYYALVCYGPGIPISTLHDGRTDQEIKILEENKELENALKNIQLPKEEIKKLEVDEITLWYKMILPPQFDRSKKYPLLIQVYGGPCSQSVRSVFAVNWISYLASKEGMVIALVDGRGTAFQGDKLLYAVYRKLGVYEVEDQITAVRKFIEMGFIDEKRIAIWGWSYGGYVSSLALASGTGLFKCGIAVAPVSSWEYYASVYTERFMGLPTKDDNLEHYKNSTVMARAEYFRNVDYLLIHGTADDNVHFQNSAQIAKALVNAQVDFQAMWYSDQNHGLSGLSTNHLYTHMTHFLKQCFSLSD

[3] = target: T3, recombinant human DPPIV (rhDPPIV) (Homo sapiens, UniProt P27487); assay: DPPIV enzymatic activity assay; conditions: H-Gly-Pro-pNA substrate
T3 construct: purchased R&S system (so in the source)

[4] = target: T4, recombinant human PREP (rhPREP) (Homo sapiens, UniProt P48147); assay: PREP enzymatic activity assay; conditions: Z-Gly-Pro-AMC substrate
T4 sequence (P48147 1-710): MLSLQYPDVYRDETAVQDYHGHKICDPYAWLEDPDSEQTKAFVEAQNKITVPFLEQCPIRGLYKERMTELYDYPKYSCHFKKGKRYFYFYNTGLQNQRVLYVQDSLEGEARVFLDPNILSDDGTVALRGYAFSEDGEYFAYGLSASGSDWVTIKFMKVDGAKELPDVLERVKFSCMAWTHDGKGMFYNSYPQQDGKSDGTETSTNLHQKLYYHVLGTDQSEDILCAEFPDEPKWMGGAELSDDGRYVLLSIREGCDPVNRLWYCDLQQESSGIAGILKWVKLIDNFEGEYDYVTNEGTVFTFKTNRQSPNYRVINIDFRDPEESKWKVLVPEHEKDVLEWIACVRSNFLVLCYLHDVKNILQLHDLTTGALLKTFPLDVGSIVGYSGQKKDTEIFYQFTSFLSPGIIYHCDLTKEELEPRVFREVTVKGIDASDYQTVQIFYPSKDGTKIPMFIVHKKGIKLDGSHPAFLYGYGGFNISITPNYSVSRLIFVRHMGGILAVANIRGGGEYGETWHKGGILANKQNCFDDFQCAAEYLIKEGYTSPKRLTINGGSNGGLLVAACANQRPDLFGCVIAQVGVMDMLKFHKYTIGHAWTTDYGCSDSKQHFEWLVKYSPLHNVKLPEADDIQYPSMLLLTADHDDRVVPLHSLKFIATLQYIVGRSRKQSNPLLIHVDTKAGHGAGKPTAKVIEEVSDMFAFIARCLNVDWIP
Description: as §1

[5] = 1 μM test compound, Z-Gly-Pro-AMC substrate

T1 sequence (Q86TI2 whole entry): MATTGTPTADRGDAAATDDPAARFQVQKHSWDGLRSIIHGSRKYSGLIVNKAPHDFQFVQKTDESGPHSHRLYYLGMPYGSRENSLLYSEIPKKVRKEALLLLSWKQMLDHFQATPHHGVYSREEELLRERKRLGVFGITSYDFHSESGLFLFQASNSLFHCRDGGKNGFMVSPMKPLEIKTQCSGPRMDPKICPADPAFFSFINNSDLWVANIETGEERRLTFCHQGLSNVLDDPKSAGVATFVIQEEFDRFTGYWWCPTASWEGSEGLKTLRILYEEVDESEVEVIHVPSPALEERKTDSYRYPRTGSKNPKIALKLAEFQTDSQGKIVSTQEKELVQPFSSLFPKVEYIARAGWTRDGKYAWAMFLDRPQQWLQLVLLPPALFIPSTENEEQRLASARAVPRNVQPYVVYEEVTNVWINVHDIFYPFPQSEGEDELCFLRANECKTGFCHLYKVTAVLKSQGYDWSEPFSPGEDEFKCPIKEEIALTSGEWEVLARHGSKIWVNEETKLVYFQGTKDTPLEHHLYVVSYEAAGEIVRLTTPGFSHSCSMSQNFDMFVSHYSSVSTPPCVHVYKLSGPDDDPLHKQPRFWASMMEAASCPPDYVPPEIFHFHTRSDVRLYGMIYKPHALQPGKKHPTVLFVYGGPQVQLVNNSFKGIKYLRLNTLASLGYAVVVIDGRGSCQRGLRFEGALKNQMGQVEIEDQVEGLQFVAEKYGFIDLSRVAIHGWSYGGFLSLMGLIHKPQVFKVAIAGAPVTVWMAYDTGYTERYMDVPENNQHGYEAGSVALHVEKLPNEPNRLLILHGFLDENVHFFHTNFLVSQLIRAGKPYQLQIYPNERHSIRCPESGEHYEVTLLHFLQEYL
T3 sequence (P27487 whole entry): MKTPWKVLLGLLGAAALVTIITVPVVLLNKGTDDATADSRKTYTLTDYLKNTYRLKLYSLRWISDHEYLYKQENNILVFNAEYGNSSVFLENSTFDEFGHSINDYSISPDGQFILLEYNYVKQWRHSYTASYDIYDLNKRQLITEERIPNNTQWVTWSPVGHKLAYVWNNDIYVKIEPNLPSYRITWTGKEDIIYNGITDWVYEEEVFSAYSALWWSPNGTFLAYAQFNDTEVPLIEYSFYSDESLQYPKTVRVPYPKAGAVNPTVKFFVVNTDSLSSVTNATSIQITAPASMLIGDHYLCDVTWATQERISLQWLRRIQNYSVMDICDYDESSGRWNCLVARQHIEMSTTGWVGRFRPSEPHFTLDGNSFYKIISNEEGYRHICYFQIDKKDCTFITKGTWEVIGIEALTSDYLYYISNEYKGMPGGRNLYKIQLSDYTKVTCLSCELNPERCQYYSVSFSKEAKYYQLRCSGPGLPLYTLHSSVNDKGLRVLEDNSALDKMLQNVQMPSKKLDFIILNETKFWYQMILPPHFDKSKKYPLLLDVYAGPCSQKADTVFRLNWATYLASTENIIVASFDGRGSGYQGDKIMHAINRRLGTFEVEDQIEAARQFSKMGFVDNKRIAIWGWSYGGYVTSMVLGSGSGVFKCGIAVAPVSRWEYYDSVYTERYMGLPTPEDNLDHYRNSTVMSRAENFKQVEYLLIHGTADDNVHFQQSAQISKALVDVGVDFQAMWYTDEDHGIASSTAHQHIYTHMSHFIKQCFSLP

## N#C[C@@H]1CC(F)(F)CN1C(=O)CNC(=O)c1ccncc1-c1ccc(N)nc1 [Compound 107, (S)-6′-amino-N-(2-(2-cyano-4,4-difluoropyrrolidin-1-yl)-2-oxoethyl)-[3,3′-bipyridine]-4-carboxamide formate]
[1]
  IC50: 1 to 10 µM
[2]; [5]
  inhibition at 1 µM: > 50%
[2]; Table 2, Z-Gly-Pro-AMC
  IC50: < 1 µM
[2]; Table 3
  IC50: < 1 µM
[3]
  IC50: 1 to 10 µM
[4]
  IC50: > 10 µM

## N#C[C@@H]1CC(F)(F)CN1C(=O)CNC(=O)c1c[nH]c(=O)cc1-c1ccnc2ccccc12 [Compound 116, (S)—N-(2-(2-cyano-4,4-difluoropyrrolidin-1-yl)-2-oxoethyl)-6-oxo-4-(quinolin-4-yl)-1,6-dihydropyridine-3-carboxamide]
[1]
  IC50: > 10 µM
[2]; [5]
  inhibition at 1 µM: > 50%
[2]; Table 2, Z-Gly-Pro-AMC
  IC50: < 1 µM
[2]; Table 3
  IC50: < 1 µM
[3]
  IC50: 1 to 10 µM
[4]
  IC50: > 10 µM

## Cn1ccc2c(-c3cnccc3C(=O)NCC(=O)N3CC(F)(F)C[C@H]3C#N)cccc21 [Compound 66, (S)—N-(2-(2-cyano-4,4-difluoropyrrolidin-1-yl)-2-oxoethyl)-3-(1-methyl-1H-indol-4-yl)isonicotinamide]
[1]
  IC50: > 10 µM
[2]; [5]
  inhibition at 1 µM: > 50%
[2]; Table 2, Z-Gly-Pro-AMC
  IC50: < 1 µM
[2]; Table 3
  IC50: < 1 µM
[3]
  IC50: > 10 µM
[4]
  IC50: > 10 µM

## Cc1ccc(-c2cnccc2C(=O)NCC(=O)N2CC(F)(F)C[C@H]2C#N)o1 [Compound 106, (S)—N-(2-(2-cyano-4,4-difluoropyrrolidin-1-yl)-2-oxoethyl)-3-(5-methylfuran-2-yl)isonicotinamide]
[1]
  IC50: > 10 µM
[2]; [5]
  inhibition at 1 µM: > 50%
[2]; Table 2, Z-Gly-Pro-AMC
  IC50: < 1 µM
[2]; Table 3
  IC50: < 1 µM
[3]
  IC50: > 10 µM
[4]
  IC50: > 10 µM

## N#C[C@@H]1CC(F)(F)CN1C(=O)CNC(=O)c1ccc2nccc(-c3ccccc3)c2c1 [Compound 19, (S)—N-(2-(2-cyano-4,4-difluoropyrrolidin-1-yl)-2-oxoethyl)-4-phenylquinoline-6-carboxamide]
[2]; [5]
  inhibition at 1 µM: > 50%
[2]; Table 2, Z-Gly-Pro-AMC
  IC50: < 1 µM
[2]; Table 3
  IC50: < 1 µM
[3]
  IC50: > 10 µM
[4]
  IC50: > 10 µM

## CC(NC(=O)c1c[nH]c(=O)c2ccccc12)C(=O)N1CC(F)(F)C[C@H]1C#N (stereo partly drawn) [Compound 25, N-(1-((S)-2-cyano-4,4-difluoropyrrolidin-1-yl)-1-oxopropan-2-yl)-1-oxo-1,2-dihydroisoquinoline-4-carboxamide]
[2]
  inhibition at 1 µM: < 25%

## N#C[C@@H]1CC(F)(F)CN1C(=O)CNC(=O)c1ccc2[nH]ncc2c1 [Compound 83]
[2]; [5]
  inhibition at 1 µM: 25 to 50%

## N#C[C@@H]1CC(F)(F)CN1C(=O)CCCNC(=O)c1c[nH]c(=O)c2ccccc12 [Compound 82, (S)—N-(4-(2-cyano-4,4-difluoropyrrolidin-1-yl)-4-oxobutyl)-1-oxo-1,2-dihydroisoquinoline-4-carboxamide]
[2]; [5]
  inhibition at 1 µM: < 25%

## N#C[C@@H]1CC(F)(F)CN1C(=O)CNC(=O)c1ccc(=O)[nH]c1-c1ccccc1 [compound 30]
[2]; [5]
  inhibition at 1 µM: < 25%

## COc1ccc(C(=O)NCC(=O)N2CC(F)(F)C[C@H]2C#N)c(-c2ccccc2)n1 [Compound 86, (S)—N-(2-(2-cyano-4,4-difluoropyrrolidin-1-yl)-2-oxoethyl)-6-methoxy-2-phenylnicotinamide]
[2]; [5]
  inhibition at 1 µM: 25 to 50%

## N#C[C@@H]1CC(F)(F)CN1C(=O)CNC(=O)c1c[nH]c(=O)cc1-c1ccccc1 [Compound 29, (S)—N-(2-(2-cyano-4,4-difluoropyrrolidin-1-yl)-2-oxoethyl)-6-oxo-4-phenyl-1,6-dihydropyridine-3-carboxamide]
[1]
  IC50: > 10 µM
[2]; [5]
  inhibition at 1 µM: > 50%
[2]; Table 2, Z-Gly-Pro-AMC
  IC50: < 1 µM
[2]; Table 3
  IC50: < 1 µM
[3]
  IC50: 1 to 10 µM
[4]
  IC50: > 10 µM

## N#C[C@H]1CC(F)(F)CN1C(=O)CNC(=O)c1ccncc1C1CC1 [compound 37]
[2]
  inhibition at 1 µM: > 50%

## N#C[C@@H]1CC(F)(F)CN1C(=O)CNC(=O)c1coc(=O)c2ccccc12 [Compound 22, (S)—N-(2-(2-cyano-4,4-difluoropyrrolidin-1-yl)-2-oxoethyl)-1-oxo-1H-isochromene-4-carboxamide]
[2]; [5]
  inhibition at 1 µM: > 50%
[2]; Table 2, Z-Gly-Pro-AMC
  IC50: < 1 µM
[2]; Table 3
  IC50: < 1 µM
[3]
  IC50: > 10 µM
[4]
  IC50: 1 to 10 µM

## COc1cnccc1C(=O)NCC(=O)N1CC(F)(F)C[C@H]1C#N [Compound 36]
[2]; [5]
  inhibition at 1 µM: > 50%
[2]; Table 2, Z-Gly-Pro-AMC
  IC50: < 1 µM
[2]; Table 3
  IC50: < 1 µM
[3]
  IC50: > 10 µM

## N#Cc1ccc(C(=O)NCC(=O)N2CC(F)(F)C[C@H]2C#N)cc1 [Compound 17, (S)-4-cyano-N-(2-(2-cyano-4,4-difluoropyrrolidin-1-yl)-2-oxoethyl)benzamide]
[2]; [5]
  inhibition at 1 µM: 25 to 50%

## N#Cc1ccc(C(=O)NCC(=O)N2CC(F)(F)C[C@H]2C#N)cc1F [Compound 15, (S)-4-cyano-N-(2-(2-cyano-4,4-difluoropyrrolidin-1-yl)-2-oxoethyl)-3-fluorobenzamide]
[2]; [5]
  inhibition at 1 µM: 25 to 50%

## N#C[C@@H]1CC(F)(F)CN1C(=O)CNC(=O)c1ccncc1CCc1ccccc1 [Compound 125, (S)—N-(2-(2-cyano-4,4-difluoropyrrolidin-1-yl)-2-oxoethyl)-3-phenethylisonicotinamide]
[1]
  IC50: 1 to 10 µM
[2]; [5]
  inhibition at 1 µM: > 50%
[2]; Table 2, Z-Gly-Pro-AMC
  IC50: < 1 µM
[2]; Table 3
  IC50: < 1 µM

## N#C[C@@H]1CC(F)(F)CN1C(=O)CNC(=O)c1cc2ccncc2o1 [Compound 84]
[2]; [5]
  inhibition at 1 µM: 25 to 50%

## CCN1C(=O)CC[C@@H](C(=O)NCC(=O)N2CC(F)(F)C[C@H]2C#N)[C@@H]1c1ccccc1 [Compound 20, (2R,3R)—N-(2-((S)-2-cyano-4,4-difluoropyrrolidin-1-yl)-2-oxoethyl)-1-ethyl-6-oxo-2-phenylpiperidine-3-carboxamide]
[2]; [5]
  inhibition at 1 µM: 25 to 50%

## N#C[C@@H]1CC(F)(F)CN1C(=O)C1CC(NC(=O)c2c[nH]c(=O)c3ccccc23)C1 (some centres unmarked) [Compound 101]
[2]; [5]
  inhibition at 1 µM: < 25%

## N#C[C@@H]1CC(F)(F)CN1C(=O)CNC(=O)C1=NNC(=O)C2C=CC=CC12 (some centres unmarked) [Compound 80]
[2]; [5]
  inhibition at 1 µM: > 50%
[2]; Table 2, Z-Gly-Pro-AMC
  IC50: < 1 µM
[2]; Table 3
  IC50: < 1 µM
[3]
  IC50: > 10 µM

## N#C[C@@H]1CC(F)(F)CN1C(=O)CNC(=O)c1ccn2nccc2c1 [Compound 85]
[2]; [5]
  inhibition at 1 µM: > 50%

## Cn1nc(C(=O)NCC(=O)N2CC(F)(F)C[C@H]2C#N)c2ccccc2c1=O [Compound 81]
[2]; [5]
  inhibition at 1 µM: < 25%

## N#Cc1ccc(C(=O)NCC(=O)N2CC(F)(F)C[C@H]2C#N)c(C(F)(F)F)c1 [Compound 18, (S)-4-cyano-N-(2-(2-cyano-4,4-difluoropyrrolidin-1-yl)-2-oxoethyl)-2-(trifluoromethyl)benzamide]
[2]; [5]
  inhibition at 1 µM: 25 to 50%

## N#C[C@@H]1CC(F)(F)CN1C(=O)C1(NC(=O)c2c[nH]c(=O)c3ccccc23)CC1 [Compound 23, (S)—N-(1-(2-cyano-4,4-difluoropyrrolidine-1-carbonyl)cyclopropyl)-1-oxo-1,2-dihydroisoquinoline-4-carboxamide]
[2]; [5]
  inhibition at 1 µM: < 25%

## N#C[C@@H]1CC(F)(F)CN1C(=O)CNC(=O)c1ccncc1/C=C/c1ccccc1 [Compound 124, (S,E)-N-(2-(2-cyano-4,4-difluoropyrrolidin-1-yl)-2-oxoethyl)-3-styrylisonicotinamide]
[1]
  IC50: 1 to 10 µM
[2]; [5]
  inhibition at 1 µM: > 50%
[2]; Table 2, Z-Gly-Pro-AMC
  IC50: < 1 µM
[2]; Table 3
  IC50: < 1 µM
